This note sets out measurements from US20250313575A1, “MACROCYCLES AS LRRK2 INHIBITORS, PHARMACEUTICAL COMPOSITIONS, AND USES THEREOF” (Merck Sharp & Dohme LLC, priority 2022, published 2025).

Each structure is given as a SMILES string.

The assay deals with GST-tagged truncated human mutant G2019S LRRK2 (Homo sapiens (Human), UniProt Q5S007, G2019S). As to the kind of experiment: LRRK2 G2019S Km ATP LanthaScreen assay. In kind it is biochemical. As to conditions: G2019S LRRK2, 134 μM ATP (Km ATP), LRRKtide substrate. The procedure, abridged: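 Ten-point compound series (highest 9.99 μM in DMSO) preincubated 15 min with 1.25 nM GST-tagged truncated human LRRK2 G2019S, then 90 min reaction at ambient temperature with 134 μM ATP (Km) and fluorescein-labelled LRRKtide, pH 8.5. Phosphorylation read as 520/495 nm emission ratio via Tb-labelled antibody; IC50 from 4P logistic regression.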
GST-tagged truncated human mutant G2019S LRRK2, sequence (Q5S007 970-2527 G2019S): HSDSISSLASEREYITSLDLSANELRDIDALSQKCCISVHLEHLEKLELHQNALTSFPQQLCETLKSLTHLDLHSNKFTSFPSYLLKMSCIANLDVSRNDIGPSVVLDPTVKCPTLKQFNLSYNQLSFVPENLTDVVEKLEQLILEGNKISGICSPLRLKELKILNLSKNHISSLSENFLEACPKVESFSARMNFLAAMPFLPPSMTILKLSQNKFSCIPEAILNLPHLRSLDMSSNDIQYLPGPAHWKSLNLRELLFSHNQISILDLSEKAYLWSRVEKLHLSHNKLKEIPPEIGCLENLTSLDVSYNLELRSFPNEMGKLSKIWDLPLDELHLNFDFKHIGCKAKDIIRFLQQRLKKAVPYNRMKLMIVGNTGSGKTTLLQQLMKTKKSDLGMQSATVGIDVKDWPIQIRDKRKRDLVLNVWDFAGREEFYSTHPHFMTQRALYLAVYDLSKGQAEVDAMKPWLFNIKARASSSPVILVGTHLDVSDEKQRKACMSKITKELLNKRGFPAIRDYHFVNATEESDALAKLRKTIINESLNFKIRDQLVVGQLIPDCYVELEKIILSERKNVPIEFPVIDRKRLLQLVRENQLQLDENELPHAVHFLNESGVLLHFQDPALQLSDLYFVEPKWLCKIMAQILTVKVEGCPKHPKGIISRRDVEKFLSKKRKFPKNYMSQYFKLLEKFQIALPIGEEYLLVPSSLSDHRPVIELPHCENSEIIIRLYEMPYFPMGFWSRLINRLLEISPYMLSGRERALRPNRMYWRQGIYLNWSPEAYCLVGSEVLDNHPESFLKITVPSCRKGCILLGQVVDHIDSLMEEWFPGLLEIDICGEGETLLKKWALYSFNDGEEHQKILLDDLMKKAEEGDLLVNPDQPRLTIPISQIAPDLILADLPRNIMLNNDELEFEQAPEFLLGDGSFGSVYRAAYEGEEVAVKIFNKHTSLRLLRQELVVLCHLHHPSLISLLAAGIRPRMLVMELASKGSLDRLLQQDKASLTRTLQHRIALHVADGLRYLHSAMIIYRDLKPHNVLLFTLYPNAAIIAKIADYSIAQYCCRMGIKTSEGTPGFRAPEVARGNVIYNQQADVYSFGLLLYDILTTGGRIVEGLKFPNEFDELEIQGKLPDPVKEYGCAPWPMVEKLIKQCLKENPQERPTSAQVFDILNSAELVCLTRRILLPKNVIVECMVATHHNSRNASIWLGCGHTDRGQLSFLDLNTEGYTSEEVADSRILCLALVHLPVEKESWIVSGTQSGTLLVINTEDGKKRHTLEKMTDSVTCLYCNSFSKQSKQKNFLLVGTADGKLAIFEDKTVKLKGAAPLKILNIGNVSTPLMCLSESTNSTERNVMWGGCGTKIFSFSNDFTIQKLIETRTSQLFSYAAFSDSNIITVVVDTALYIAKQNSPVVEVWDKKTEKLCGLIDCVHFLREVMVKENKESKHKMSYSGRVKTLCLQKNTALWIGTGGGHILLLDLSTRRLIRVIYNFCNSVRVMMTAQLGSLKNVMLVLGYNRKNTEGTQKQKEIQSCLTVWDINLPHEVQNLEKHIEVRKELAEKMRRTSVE
For orientation: In TR-FRET formats the signal depends on donor and acceptor labels being close together.
For `O[C@@H]1COCC1n1nc(C2CC2)c2c1OC[C@H]1CC[C@@H]1Nc1nc(ncc1C(F)(F)F)N2` (single isomer, unassigned) [Ex-6.3, (3R,4S)-4-((10aR,12aR)- or (3R,4S)-4-((10aS,12aS)- or (3S,4R)-4-((10aR,12aR)- or (3S,4R)-4-((10aR,12aR)-3-cyclopropyl-8-(trifluoromethyl)-10,10a,11,12,12a,13-hexahydro-5,9-(azeno)cyclobuta[k]pyrazolo[3,4-b][1]oxa[4,6,10]triazacyclotridecin-1 (4H)-yl)tetrahydrofuran-3-ol], the “LRRK2 pIC50” value is reported as 7.29. Under `CC(C)n1nc(C(C)(C)C#N)c2c1Nc1ncc(C(F)(F)F)c(n1)N[C@@H]1COC[C@H]1CO2` [Ex-2.43, 2-((10aS,13aS)-3-isopropyl-8-(trifluoromethyl)-3,4,10a,11,13a,14-hexahydro-10H,13H-5,9-(azeno)furo[3,4-k]pyrazolo[4,3-b][1]oxa[4,6,10]triazacyclotridecin-1-yl)-2-methylpropanenitrile] stands greater than 10.09; under `Cc1nn(C2CCC2)c2c1OCCC(C)Nc1nc(ncc1C(F)(F)F)N2` (single isomer, unassigned) [Ex-2.7, (R)- or (S)-1-cyclobutyl-3,7-dimethyl-10-(trifluoromethyl)-1,5,6,7,8,14-hexahydro-9,13-(azeno)pyrazolo[4,3-b][1]oxa[4,6,10]triazacyclotridecine], 7.21. In the case of `Cc1nn(C2CCC2)c2c1OC[C@@H]1COCC[C@H]1Nc1nc(ncc1C(F)(F)F)N2` [Ex-2.33, (4aR,16aS)- or (4aS,16aR)-12-cyclobutyl-14-methyl-7-(trifluoromethyl)-3,4,4a,5,11,12,16,16a-octahydro-1H-6,10-(azeno)pyrano[4,3-k]pyrazolo[4,3-b][1]oxa[4,6,10]triazacyclotridecine], the “LRRK2 pIC50” value was 9.11. For `Cc1nn(C)c2c1OCC1(CC1)CNc1nc(ncc1C(F)(F)F)N2` [Ex-2.5, 1′,3′-dimethyl-10′-(trifluoromethyl)-1′,7′,8′,14′-tetrahydro-5′H-spiro[cyclopropane-1,6′-[9,13](azeno)pyrazolo[4,3-b][1]oxa[4,6,10]triazacyclotridecine]], the “LRRK2 pIC50” value is greater than 10.09.

In the case of `Cc1nn(C)c2c1OCC[C@H](C)Nc1nc(ncc1C(F)(F)F)N2` (mixture of isomers) [Ex-2.1, (R)- and (S)-1,3,7-trimethyl-10-(trifluoromethyl)-1,5,6,7,8,14-hexahydro-9,13-(azeno)pyrazolo[4,3-b][1]oxa[4,6,10]triazacyclotridecine], the “LRRK2 pIC50” value is 6.64. For the compound `CC(C)n1nc(CO)c2c1Nc1ncc(C(F)(F)F)c(n1)N[C@@H]1COC[C@H]1CO2` [Ex-6.7, ((10aS,13aS)-3-isopropyl-8-(trifluoromethyl)-3,4,10a,11,13a,14-hexahydro-10H,13H-5,9-(azeno)furo[3,4-k]pyrazolo[4,3-b][1]oxa[4,6,10]triazacyclotridecin-1-yl)methanol], the “LRRK2 pIC50” value is given as greater than 10.09. Under `Cc1nn(C2CCC2)c2c1OC[C@@H]1COC[C@H]1Nc1nc(ncc1F)N2` [Ex-2.66, (10aS,13aS)-3-cyclobutyl-8-fluoro-1-methyl-3,4,10a,11,13a,14-hexahydro-10H,13H-5,9-(azeno)furo[3,4-k]pyrazolo[4,3-b][1]oxa[4,6,10]triazacyclotridecine] stands 8.43. In the case of `Cc1nn(C(C)C)c2c1OC[C@@H]1COC[C@H]1Nc1nc(ncc1C(F)(F)F)N2` [Ex-2.42, (10aS,13aS)-3-isopropyl-1-methyl-8-(trifluoromethyl)-3,4,10a,11,13a,14-hexahydro-10H,13H-5,9-(azeno)furo[3,4-k]pyrazolo[4,3-b][1]oxa[4,6,10]triazacyclotridecine], the “LRRK2 pIC50” value stood at 9.93.

As for `FC(F)(F)c1cnc2nc1N[C@@H]1COC[C@H]1COc1ccnc(Cl)c1N2` [Ex-15.5, (3aS,16aS)-11-chloro-6-(trifluoromethyl)-3a,4,16,16a-tetrahydro-1H,3H,10H-5,9-(azeno)furo[3,4-k]pyrido[4,3-b][1]oxa[4,6,10]triazacyclotridecine], the “LRRK2 pIC50” value worked out at 9.90.
